The results in this text go back to patent US9718792B2, “Isoxazoline hydroxamic acid derivatives as LpxC inhibitors” (priority 2014, dated 2017).

pIC50: −log10 of the molar value. ≈ marks a conversion by molar mass, not a printed value. Where two headings read alike, the source gives them in different places.

One assay has as its target P. aeruginosa LpxC (Pseudomonas aeruginosa (strain ATCC 15692 / DSM 22644 / CIP 104116 / JCM 14847 / LMG 12228 / 1C / PRS 101 / PAO1), UniProt P47205). Put plainly: P. aeruginosa LpxC Inhibition Assay. In kind it is biochemical. The following applies: 1 nM P. aeruginosa LpxC, 2 μM substrate, LC-MS/MS; read-out: PA LpxC IC50. From the text: The P. aeruginosa LpxC protein is produced according to the general method of Hyland et al (Journal of Bacteriology 1997 179, 2029-2037: Cloning, expression and purification of UDP-3-O-acyl-GIcNAc deacetylase from Pseudomonas aeruginosa: a metalloamidase of the lipid A biosynthesis pathway). The LC-MS/MS method for quantitation of LpxC product was developed using an Agilent 1200 Capillary HPLC system coupled to an Applied Biosystems MDS Sciex 4000QTRAP mass spectrometer. Both instruments are controlled using the Applied Biosystems MDS Sciex Analyst software. LpxC reaction product (UDP-3-O—(R-3-hydroxyacyl)-glucosamine) was produced by hydrolysis of LpxC substrate catalyzed by P.a. LpxC and purified using reversed phase chromatography on a Phenomenex Luna C18(2) 4.6×50 mm column. An LpxC product calibration curve was generated to evaluate the sensitivity and dynamic range of the LC-MS/MS method. Briefly, compounds are pre-incubated with 1 nM P. aeruginosa LpxC for 30 min. at room temperature. Reactions are initiated by the addition of 2 μM UDP-3-O—(R-3-hydroxydecanoyl)-GIcNAc. Reactions are conducted in a 384-well plate with a total volume of 50 μL in each well containing 50 mM Sodium phosphate pH 7.5, 0.005% Trition X-100 for 20 min at room temperature. After quenching with 1.8% HOAc (5 μL of a 20% HOAc added to each well), reaction mixtures are analyzed using the LC-MS/MS method and peak areas are transformed into product concentration using a LpxC product calibration curve. Total activity (0% inhibition control) is obtained from reactions with no inhibitors and 100% inhibition control is the background using quenched samples before reaction starts. For IC50 determinations, peak areas are converted to percent inhibition in Microsoft Excel. Percent inhibition values are plotted vs. log compound concentration using XLfit. Data is fit to the four-parameter logistic equation using the non-linear regression algorithm in XLfit to return the IC50 and hill slope values.

The next assay deals with P. aeruginosa PAO1. The experiment in a line: Susceptibility Testing (MIC, broth microdilution). Particulars: Pseudomonas aeruginosa, PAO1, 20 h, read-out: PAO1 MIC. The format is cell-based, Pseudomonas aeruginosa. As to the method:
Bacterial isolates were cultivated from −70° C. frozen stocks by two consecutive overnight passages at 35° C. in ambient air on 5% blood agar (Remel, Lenexa, Kans.). Quality control and P. aeruginosa ATCC 27853) is from the American Type Culture Collection (ATCC; Rockville, Md.) and PAO1 was received from Dr. K. Poole.
Minimal Inhibitory Concentrations (MICs) were determined by the broth microdilution method in accordance with Clinical and Laboratories Institute (CLSI) guidelines. In brief, fresh bacterial overnight cultures were resuspended in sterile saline, adjusted to a 0.5 McFarland turbidity standard and then diluted […] in cation adjusted Mueller-Hinton Broth II (MHB; Remel BBL) to yield a final inoculum of approximately 5×10^5 colony-forming units (CFU)/mL. Two-fold serial dilutions of compounds were prepared in 100% dimethyl sulfoxide (DMSO) at 100-fold the highest final assay concentration; the resulting dilution series of compounds were diluted 1:10 with sterile water. Ten μl of the drug dilution series in 10% DMSO was transferred to microtiter wells and 90 μl of bacterial suspension was inoculated into the wells. All inoculated microdilution trays were incubated in ambient air at […] for 20 hours. Following incubation, assay plates were read in a microtiter plate reader at 600 nm and visually inspected to confirm the MIC endpoint well with the OD value. The lowest concentration of the compound that prevented visible growth was recorded as the MIC. Performance of the assay was monitored by testing ciprofloxacin against laboratory quality control strains in accordance with guidelines of the CLSI.
On the technique in general: Broth dilution looks for growth in wells or tubes with falling amounts of substance.

[1] abbreviates: P. aeruginosa PAO1, broth microdilution, 20 hours.

A word on the pIC50: it is the negative decadic logarithm of the IC50, by convention in mol/L. In general, MIC refers to the lowest concentration found to suppress growth. With `CC#Cc1ccc(C2=NO[C@@H](C[C@](C)(C(=O)NO)S(C)(=O)=O)C2)cc1` [Compound 2-A, (R)—N-hydroxy-2-methyl-2-(methylsulfonyl)-3-((R)-3-(4-(prop-1-yn-1-yl)phenyl)-4,5-dihydroisoxazol-5-yl)propanamide], the pIC50 on P. aeruginosa LpxC was 9.10. Moreover, the MIC in the assay on P. aeruginosa PAO1 (setting [1]) was 0.25 µg/mL (≈ 0.686 µM).

Turning to `C[C@@](C[C@H]1CC(c2ccc(C#CC3CC3)cc2)=NO1)(C(=O)NO)S(C)(=O)=O` [Compound 6-A, (R)-3-((R)-3-(4-(cyclopropylethynyl)phenyl)-4,5-dihydroisoxazol-5-yl)-N-hydroxy-2-methyl-2-(methylsulfonyl)propanamide], the pIC50 at P. aeruginosa LpxC is 9.15. Besides, the MIC in the assay on P. aeruginosa PAO1 (setting [1]) stood at 0.25 µg/mL (≈ 0.64 µM).

Consider `C[C@@](C[C@H]1CC(c2ccc(C#CCCF)cc2)=NO1)(C(=O)NO)S(C)(=O)=O` [Compound 22, (R)-3-((R)-3-(4-(4-fluorobut-1-yn-1-yl)phenyl)-4,5-dihydroisoxazol-5-yl)-N-hydroxy-2-methyl-2-(methylsulfonyl)propanamide], for which the pIC50 at P. aeruginosa LpxC is above 9.30. Besides, the MIC in the assay with P. aeruginosa PAO1 (setting [1]) is 0.5 µg/mL (≈ 1.26 µM).

`CCCc1ccc(C2=NO[C@@H](C[C@](C)(C(=O)NO)S(C)(=O)=O)C2)cc1` [Compound 23, (R)—N-hydroxy-2-methyl-2-(methylsulfonyl)-3-((R)-3-(4-propylphenyl)-4,5-dihydroisoxazol-5-yl)propanamide]: the pIC50 on P. aeruginosa LpxC is above 9.30. The MIC in the assay with P. aeruginosa PAO1 (setting [1]) is 0.5 µg/mL (≈ 1.36 µM).

Take `C/C=C/c1ccc(C2=NO[C@@H](C[C@](C)(C(=O)NO)S(C)(=O)=O)C2)cc1` [Compound 24, (R)—N-hydroxy-2-methyl-2-(methylsulfonyl)-3-((R)-3-(4-((E)-prop-1-en-1-yl)phenyl)-4,5-dihydroisoxazol-5-yl)propanamide]: the negative logarithm of the IC50 (pIC50) at P. aeruginosa LpxC is 9.10. For the same compound, the minimum inhibitory concentration (MIC) with P. aeruginosa PAO1 (setting [1]) stood at 0.5 µg/mL (≈ 1.36 µM).

For the compound `C/C=C(\F)c1ccc(C2=NO[C@@H](C[C@](C)(C(=O)NO)S(C)(=O)=O)C2)cc1` [Compound 29, (R)-3-((R)-3-(4-((Z)-1-fluoroprop-1-en-1-yl)phenyl)-4,5-dihydroisoxazol-5-yl)-N-hydroxy-2-methyl-2-(methylsulfonyl)propanamide], on P. aeruginosa LpxC, the pIC50 is 9.22. Moreover, the MIC with P. aeruginosa PAO1 (setting [1]) stood at 0.125 µg/mL (≈ 0.325 µM).

Consider `CC(O)C#CC#Cc1ccc(C2=NO[C@@H](C[C@](C)(C(=O)NO)S(C)(=O)=O)C2)cc1` (stereo partly drawn) [Compound 30, (2R)—N-hydroxy-3-((5R)-3-(4-(5-hydroxyhexa-1,3-diyn-1-yl)phenyl)-4,5-dihydroisoxazol-5-yl)-2-methyl-2-(methylsulfonyl)propanamide], for which the negative-log IC50 (pIC50) on P. aeruginosa LpxC was 9.30. For the same compound, in the assay with P. aeruginosa PAO1 (setting [1]), the minimum inhibitory concentration (MIC) came to 0.06 µg/mL (≈ 0.143 µM).

Regarding `CCc1ccc(C2=NO[C@@H](C[C@](C)(C(=O)NO)S(C)(=O)=O)C2)cc1` [Compound 31, (R)-3-((R)-3-(4-ethylphenyl)-4,5-dihydroisoxazol-5-yl)-N-hydroxy-2-methyl-2-(methylsulfonyl)propanamide], the pIC50 on P. aeruginosa LpxC is 9.00. Besides, the minimum inhibitory concentration (MIC) in the assay on P. aeruginosa PAO1 (setting [1]) was found to be 0.22 µg/mL (≈ 0.621 µM).

On to `CCSc1ccc(C2=NO[C@@H](C[C@](C)(C(=O)NO)S(C)(=O)=O)C2)cc1` [Compound 32, (R)-3-((R)-3-(4-(ethylthio)phenyl)-4,5-dihydroisoxazol-5-yl)-N-hydroxy-2-methyl-2-(methylsulfonyl)propanamide], for which the pIC50 on P. aeruginosa LpxC was 9.05. In addition, the MIC in the assay on P. aeruginosa PAO1 (setting [1]) was determined as 0.4 µg/mL (≈ 1.03 µM).

With `C[C@@](C[C@H]1CC(c2ccc(CCCF)cc2)=NO1)(C(=O)NO)S(C)(=O)=O` [Compound 33, (R)-3-((R)-3-(4-(3-fluoropropyl)phenyl)-4,5-dihydroisoxazol-5-yl)-N-hydroxy-2-methyl-2-(methylsulfonyl) propanamide], the pIC50 at P. aeruginosa LpxC was 8.70. For the same compound, in the assay on P. aeruginosa PAO1, the MIC amounted to 0.5 µg/mL (≈ 1.29 µM).

Take `C[C@@](C[C@H]1CC(c2ccc(CCCCF)cc2)=NO1)(C(=O)NO)S(C)(=O)=O` [Compound 34, (R)-3-((R)-3-(4-(4-fluorobutyl)phenyl)-4,5-dihydroisoxazol-5-yl)-N-hydroxy-2-methyl-2-(methylsulfonyl) propanamide]: at P. aeruginosa LpxC, the negative-log IC50 (pIC50) was 8.70. Further, in the assay with P. aeruginosa PAO1 (setting [1]), the MIC was found to be 0.5 µg/mL (≈ 1.25 µM).

For the compound `CC(C)(O)[C@H]1C[C@H](C#Cc2ccc(C3=NO[C@@H](C[C@](C)(C(=O)NO)S(C)(=O)=O)C3)cc2)C1` [Compound 39A, (R)—N-hydroxy-3-((R)-3-(4-(((1 r,3R)-3-(2-hydroxypropan-2-yl)cyclobutyl)ethynyl)phenyl)-4,5-dihydroisoxazol-5-yl)-2-methyl-2-(methylsulfonyl)propanamide], the negative-log IC50 (pIC50) on P. aeruginosa LpxC was 9.30. The MIC in the assay with P. aeruginosa PAO1 (setting [1]) worked out at 0.5 µg/mL (≈ 1.08 µM).

With `CC(C)(O)[C@H]1C[C@@H](C#Cc2ccc(C3=NO[C@@H](C[C@](C)(C(=O)NO)S(C)(=O)=O)C3)cc2)C1` [Compound 39B, (R)—N-hydroxy-3-((R)-3-(4-(((1 s,3S)-3-(2-hydroxypropan-2-yl)cyclobutyl)ethynyl)phenyl)-4,5-dihydroisoxazol-5-yl)-2-methyl-2-(methylsulfonyl)propanamide], the negative logarithm of the IC50 (pIC50) at P. aeruginosa LpxC is 8.70. Further, in the assay with P. aeruginosa PAO1 (setting [1]), the MIC came out at 1 µg/mL (≈ 2.16 µM).

As for `C[C@@](C[C@H]1CC(c2ccc(-c3ccc(CCO)cc3)cc2)=NO1)(C(=O)NO)S(C)(=O)=O` [Compound 40, (R)—N-hydroxy-3-((R)-3-(4′-(2-hydroxyethyl)-[1,1′-biphenyl]-4-yl)-4,5-dihydroisoxazol-5-yl)-2-methyl-2-(methylsulfonyl)], on P. aeruginosa LpxC, the pIC50 is 9.30. Further, the MIC in the assay on P. aeruginosa PAO1 (setting [1]) worked out at 0.16 µg/mL (≈ 0.358 µM).

For `C[C@@](C[C@H]1CC(c2ccc(-c3ccc(CO)cc3)cc2)=NO1)(C(=O)NO)S(C)(=O)=O` [Compound 41, (R)—N-hydroxy-3-((R)-3-(4′-(hydroxymethyl)-[1,1′-biphenyl]-4-yl)-4,5-dihydroisoxazol-5-yl)-2-methyl-2-(methylsulfonyl)], the pIC50 on P. aeruginosa LpxC was 9.30. In the assay with P. aeruginosa PAO1 (setting [1]), the MIC worked out at 0.125 µg/mL (≈ 0.289 µM).

Consider `C[C@@](C[C@H]1CC(c2ccc(-c3ccncc3F)cc2)=NO1)(C(=O)NO)S(C)(=O)=O` [Compound 42, (R)-3-((R)-3-(4-(3-fluoropyridin-4-yl)phenyl)-4,5-dihydroisoxazol-5-yl)-N-hydroxy-2-methyl-2-(methylsulfonyl)propanamide], for which the pIC50 at P. aeruginosa LpxC was 9.30. Moreover, in the assay with P. aeruginosa PAO1 (setting [1]), the minimal inhibitory concentration (MIC) was 0.25 µg/mL (≈ 0.593 µM).

With `C[C@@](C[C@H]1CC(c2ccc(-n3nccn3)cc2)=NO1)(C(=O)NO)S(C)(=O)=O` [Compound 43, (R)-3-((R)-3-(4-(2H-1,2,3-triazol-2-yl)phenyl)-4,5-dihydroisoxazol-5-yl)-N-hydroxy-2-methyl-2-(methylsulfonyl)propanamide], the pIC50 at P. aeruginosa LpxC was 8.30. Also, the MIC in the assay on P. aeruginosa PAO1 (setting [1]) is 1.4 µg/mL (≈ 3.56 µM).

For the compound `COC1CC(C#Cc2ccc(C3=NO[C@@H](C[C@](C)(C(=O)NO)S(C)(=O)=O)C3)cc2)C1` (stereo partly drawn) [Compound 44, (R)—N-hydroxy-3-((R)-3-(4-((3-methoxycyclobutyl)ethynyl)phenyl)-4,5-dihydroisoxazol-5-yl)-2-methyl-2-(methylsulfonyl)propanamide], the pIC50 on P. aeruginosa LpxC is 9.10. Besides, in the assay with P. aeruginosa PAO1 (setting [1]), the MIC worked out at 0.5 µg/mL (≈ 1.15 µM).

For the compound `C[C@@H](O)Cc1ccc(-c2ccc(C3=NO[C@@H](C[C@](C)(C(=O)NO)S(C)(=O)=O)C3)cc2)cc1` [Compound 45, (R)—N-hydroxy-3-((R)-3-(4′-((R)-2-hydroxypropyl)-[1,1′-biphenyl]-4-yl)-4,5-dihydroisoxazol-5-yl)-2-methyl-2-(methylsulfonyl)], the pIC50 on P. aeruginosa LpxC was 9.22. Further, the MIC in the assay on P. aeruginosa PAO1 (setting [1]) was determined as 0.16 µg/mL (≈ 0.347 µM).
